Reference: patent US10835533B2, “1 -((3S,4R)-4-(3-fluorophenyl)-1-(2-methoxyethyl)pyrrolidin-3-yl)-3-(4-methyl-3-(2-methylpyrimidin-5-yl)-1-phenyl-1H-pyrazol-5-yl)urea as a TrkA kinase inhibitor” (Array BioPharma Inc., priority 2014, dated 2020)

Experiments:
Experiment in all cases: KinaseProfiler kinase profiling
Type in all cases: biochemical
Conditions in all cases: 10 μM, ATP near Km
[1] = target: T1, AURKA (Homo sapiens, UniProt O14965)
T1 construct: purchased Millipore, Inc. (KinaseProfiler service)
In short: (§1)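 Single test compound screened at 10 μM against each kinase, with ATP near the Km of that kinase. Run in duplicate. Activity is given as percent of control, the mean of both replicates.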

[2] = target: T2, Abl-P (Homo sapiens, UniProt P00519)
T2 construct: purchased Millipore, Inc. (KinaseProfiler service)
In short: as §1

[3] = target: T3, Abl2 (Homo sapiens, UniProt P42684)
T3 construct: purchased Millipore, Inc. (KinaseProfiler service)
In short: as §1

[4] = target: T4, BLK (Homo sapiens, UniProt P51451)
T4 construct: purchased Millipore, Inc. (KinaseProfiler service)
In short: as §1

[5] = target: T5, CAMK1 (Homo sapiens, UniProt Q14012)
T5 construct: purchased Millipore, Inc. (KinaseProfiler service)
In short: as §1

[6] = target: T6, CDK5/p25 (Homo sapiens, UniProt Q00535)
T6 construct: purchased Millipore, Inc. (KinaseProfiler service)
In short: as §1

[7] = target: T7, CLK2 (Homo sapiens, UniProt P49760)
T7 construct: purchased Millipore, Inc. (KinaseProfiler service)
In short: as §1

[8] = target: T8, EGFR (Homo sapiens, UniProt P00533)
T8 construct: purchased Millipore, Inc. (KinaseProfiler service)
In short: as §1

[9] = target: T9, ERK1 (Homo sapiens, UniProt P27361)
T9 construct: purchased Millipore, Inc. (KinaseProfiler service)
In short: as §1

[10] = target: T10, EphA5 (Homo sapiens, UniProt P54756)
T10 construct: purchased Millipore, Inc. (KinaseProfiler service)
In short: as §1

[11] = target: T11, EphA8 (Homo sapiens, UniProt P29322)
T11 construct: purchased Millipore, Inc. (KinaseProfiler service)
In short: as §1

[12] = target: T12, EphB1 (Homo sapiens, UniProt P54762)
T12 construct: purchased Millipore, Inc. (KinaseProfiler service)
In short: as §1

[13] = target: T13, GRK5 (Homo sapiens, UniProt P34947)
T13 construct: purchased Millipore, Inc. (KinaseProfiler service)
In short: as §1

[14] = target: T14, GSK3beta (Homo sapiens, UniProt P49841)
T14 construct: purchased Millipore, Inc. (KinaseProfiler service)
In short: as §1

[15] = target: T15, HIPK3 (Homo sapiens, UniProt Q9H422)
T15 construct: purchased Millipore, Inc. (KinaseProfiler service)
In short: as §1

[16] = target: T16, ITK (Homo sapiens, UniProt Q08881)
T16 construct: purchased Millipore, Inc. (KinaseProfiler service)
In short: as §1

[17] = target: T17, JAK2 (Homo sapiens, UniProt O60674)
T17 construct: purchased Millipore, Inc. (KinaseProfiler service)
In short: as §1

[18] = target: T18, MAPKAP-K3 (Homo sapiens, UniProt Q16644)
T18 construct: purchased Millipore, Inc. (KinaseProfiler service)
In short: as §1

[19] = target: T19, MKK6 (Homo sapiens, UniProt P52564)
T19 construct: purchased Millipore, Inc. (KinaseProfiler service)
In short: as §1

[20] = target: T20, MKK7 (Homo sapiens, UniProt O14733)
T20 construct: purchased Millipore, Inc. (KinaseProfiler service)
In short: as §1

[21] = target: T21, MSK1 (Homo sapiens, UniProt O75582)
T21 construct: purchased Millipore, Inc. (KinaseProfiler service)
In short: as §1

[22] = target: T22, Mer (Homo sapiens, UniProt Q12866)
T22 construct: purchased Millipore, Inc. (KinaseProfiler service)
In short: as §1

[23] = target: T23, MuSK (Homo sapiens, UniProt O15146)
T23 construct: purchased Millipore, Inc. (KinaseProfiler service)
In short: as §1

[24] = target: T24, PAK4 (Homo sapiens, UniProt O96013)
T24 construct: purchased Millipore, Inc. (KinaseProfiler service)
In short: as §1

[25] = target: T25, PKCiota (Homo sapiens, UniProt P41743)
T25 construct: purchased Millipore, Inc. (KinaseProfiler service)
In short: as §1

[26] = target: T26, PKCzeta (Homo sapiens, UniProt Q05513)
T26 construct: purchased Millipore, Inc. (KinaseProfiler service)
In short: as §1

[27] = target: T27, PKD2 (Homo sapiens, UniProt Q9BZL6)
T27 construct: purchased Millipore, Inc. (KinaseProfiler service)
In short: as §1

[28] = target: T28, PRKG1beta (Homo sapiens, UniProt Q13976)
T28 construct: purchased Millipore, Inc. (KinaseProfiler service)
In short: as §1

[29] = target: T29, RIPK2 (Homo sapiens, UniProt O43353)
T29 construct: purchased Millipore, Inc. (KinaseProfiler service)
In short: as §1

[30] = target: T30, Ros (Homo sapiens, UniProt P08922)
T30 construct: purchased Millipore, Inc. (KinaseProfiler service)
In short: as §1

[31] = target: T31, SGK3 (Homo sapiens, UniProt Q96BR1)
T31 construct: purchased Millipore, Inc. (KinaseProfiler service)
In short: as §1

[32] = target: T32, SIK (Homo sapiens, UniProt P57059)
T32 construct: purchased Millipore, Inc. (KinaseProfiler service)
In short: as §1

[33] = target: T33, SRPK2 (Homo sapiens, UniProt P78362)
T33 construct: purchased Millipore, Inc. (KinaseProfiler service)
In short: as §1

[34] = target: T34, TAK1-TAB1 (Homo sapiens, UniProt O43318)
T34 construct: purchased Millipore, Inc. (KinaseProfiler service)
In short: as §1

[35] = target: T35, TAO1 (Homo sapiens, UniProt Q7L7X3)
T35 construct: purchased Millipore, Inc. (KinaseProfiler service)
In short: as §1

[36] = target: T36, TBK1 (Homo sapiens, UniProt Q9UHD2)
T36 construct: purchased Millipore, Inc. (KinaseProfiler service)
In short: as §1

[37] = target: T37, TEC Activated (Homo sapiens, UniProt P42680)
T37 construct: purchased Millipore, Inc. (KinaseProfiler service)
In short: as §1

[38] = target: T38, TNK2 (Homo sapiens, UniProt Q07912)
T38 construct: purchased Millipore, Inc. (KinaseProfiler service)
In short: as §1

[39] = target: T39, ULK3 (Homo sapiens, UniProt Q6PHR2)
T39 construct: purchased Millipore, Inc. (KinaseProfiler service)
In short: as §1

[40] = target: T40, VRK2 (Homo sapiens, UniProt Q86Y07)
T40 construct: purchased Millipore, Inc. (KinaseProfiler service)
In short: as §1

[41] = target: T41, WNK3 (Homo sapiens, UniProt Q9BYP7)
T41 construct: purchased Millipore, Inc. (KinaseProfiler service)
In short: as §1

T4 sequence (P51451 2-505 limits assumed): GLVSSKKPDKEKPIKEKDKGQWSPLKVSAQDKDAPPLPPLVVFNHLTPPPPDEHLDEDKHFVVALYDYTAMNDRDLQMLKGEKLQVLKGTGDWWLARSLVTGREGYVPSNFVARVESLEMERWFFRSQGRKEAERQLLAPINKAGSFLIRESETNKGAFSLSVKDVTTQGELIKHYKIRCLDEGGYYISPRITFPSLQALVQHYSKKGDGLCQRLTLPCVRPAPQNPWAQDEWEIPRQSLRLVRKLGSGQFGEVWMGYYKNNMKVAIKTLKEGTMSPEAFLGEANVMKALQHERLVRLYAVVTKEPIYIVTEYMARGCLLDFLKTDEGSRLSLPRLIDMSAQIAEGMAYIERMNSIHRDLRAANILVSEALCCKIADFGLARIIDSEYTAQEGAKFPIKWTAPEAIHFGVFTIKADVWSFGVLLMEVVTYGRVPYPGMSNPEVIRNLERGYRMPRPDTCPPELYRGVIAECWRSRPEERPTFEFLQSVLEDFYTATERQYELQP
T37 sequence (P42680 whole entry): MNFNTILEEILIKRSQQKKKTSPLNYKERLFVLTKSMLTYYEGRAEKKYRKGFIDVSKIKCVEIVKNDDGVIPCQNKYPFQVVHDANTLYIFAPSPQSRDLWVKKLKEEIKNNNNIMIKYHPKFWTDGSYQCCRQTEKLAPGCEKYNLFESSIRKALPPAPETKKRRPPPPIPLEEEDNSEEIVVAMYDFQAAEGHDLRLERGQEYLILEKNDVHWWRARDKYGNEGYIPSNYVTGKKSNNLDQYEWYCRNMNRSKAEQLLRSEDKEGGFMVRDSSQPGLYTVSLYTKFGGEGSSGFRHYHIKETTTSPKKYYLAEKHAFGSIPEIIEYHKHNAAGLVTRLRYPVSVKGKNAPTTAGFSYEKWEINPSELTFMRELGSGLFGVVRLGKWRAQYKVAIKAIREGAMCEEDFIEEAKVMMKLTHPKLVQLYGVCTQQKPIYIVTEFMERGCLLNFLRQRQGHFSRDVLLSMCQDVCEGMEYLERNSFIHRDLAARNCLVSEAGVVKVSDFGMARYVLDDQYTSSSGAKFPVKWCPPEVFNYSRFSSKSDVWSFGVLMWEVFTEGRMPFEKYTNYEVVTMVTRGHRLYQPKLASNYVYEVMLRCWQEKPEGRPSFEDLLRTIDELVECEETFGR
T25 sequence (P41743 whole entry): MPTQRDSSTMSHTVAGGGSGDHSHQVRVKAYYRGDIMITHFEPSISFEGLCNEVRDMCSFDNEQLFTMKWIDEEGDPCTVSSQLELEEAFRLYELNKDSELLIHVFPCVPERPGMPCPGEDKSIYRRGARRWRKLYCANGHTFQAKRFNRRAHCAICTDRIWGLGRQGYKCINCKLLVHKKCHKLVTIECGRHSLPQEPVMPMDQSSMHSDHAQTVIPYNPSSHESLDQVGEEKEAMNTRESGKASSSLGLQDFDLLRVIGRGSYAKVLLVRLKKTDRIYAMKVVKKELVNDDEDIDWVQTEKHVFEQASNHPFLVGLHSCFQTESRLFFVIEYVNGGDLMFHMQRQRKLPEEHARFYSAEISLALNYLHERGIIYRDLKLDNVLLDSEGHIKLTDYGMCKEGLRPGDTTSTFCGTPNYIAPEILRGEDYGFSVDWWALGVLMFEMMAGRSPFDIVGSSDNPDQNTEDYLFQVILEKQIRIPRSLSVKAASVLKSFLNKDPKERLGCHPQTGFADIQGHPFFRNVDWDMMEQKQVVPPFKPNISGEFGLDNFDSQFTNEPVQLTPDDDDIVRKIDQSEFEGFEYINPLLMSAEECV
T18 sequence (Q16644 whole entry): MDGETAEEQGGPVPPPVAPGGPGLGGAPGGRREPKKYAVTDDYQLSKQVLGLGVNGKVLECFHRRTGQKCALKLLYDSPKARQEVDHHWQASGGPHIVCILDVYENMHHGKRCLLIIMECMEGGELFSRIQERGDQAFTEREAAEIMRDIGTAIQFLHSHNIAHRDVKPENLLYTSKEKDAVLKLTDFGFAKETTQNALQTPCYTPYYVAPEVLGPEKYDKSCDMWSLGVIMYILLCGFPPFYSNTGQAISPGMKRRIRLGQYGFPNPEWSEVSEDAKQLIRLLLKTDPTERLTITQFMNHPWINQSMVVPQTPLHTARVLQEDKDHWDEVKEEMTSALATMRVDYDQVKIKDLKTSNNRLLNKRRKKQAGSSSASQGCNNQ
T16 sequence (Q08881 whole entry): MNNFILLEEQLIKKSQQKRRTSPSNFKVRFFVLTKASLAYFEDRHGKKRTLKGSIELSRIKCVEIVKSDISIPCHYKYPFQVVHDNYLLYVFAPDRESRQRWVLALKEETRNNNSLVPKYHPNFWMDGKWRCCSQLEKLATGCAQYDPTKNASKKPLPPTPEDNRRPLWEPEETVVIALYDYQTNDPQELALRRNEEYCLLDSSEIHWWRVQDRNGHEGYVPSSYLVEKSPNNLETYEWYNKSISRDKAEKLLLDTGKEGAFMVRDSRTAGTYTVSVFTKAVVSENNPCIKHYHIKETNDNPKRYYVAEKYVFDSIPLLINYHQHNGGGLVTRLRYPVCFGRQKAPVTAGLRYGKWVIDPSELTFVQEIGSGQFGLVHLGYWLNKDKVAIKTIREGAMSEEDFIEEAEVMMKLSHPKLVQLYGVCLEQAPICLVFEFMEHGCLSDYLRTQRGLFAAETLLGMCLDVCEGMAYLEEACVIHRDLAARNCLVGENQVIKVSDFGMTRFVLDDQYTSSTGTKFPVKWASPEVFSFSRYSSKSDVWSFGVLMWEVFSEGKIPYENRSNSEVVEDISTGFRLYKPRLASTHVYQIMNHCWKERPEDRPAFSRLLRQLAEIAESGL
T21 sequence (O75582 whole entry): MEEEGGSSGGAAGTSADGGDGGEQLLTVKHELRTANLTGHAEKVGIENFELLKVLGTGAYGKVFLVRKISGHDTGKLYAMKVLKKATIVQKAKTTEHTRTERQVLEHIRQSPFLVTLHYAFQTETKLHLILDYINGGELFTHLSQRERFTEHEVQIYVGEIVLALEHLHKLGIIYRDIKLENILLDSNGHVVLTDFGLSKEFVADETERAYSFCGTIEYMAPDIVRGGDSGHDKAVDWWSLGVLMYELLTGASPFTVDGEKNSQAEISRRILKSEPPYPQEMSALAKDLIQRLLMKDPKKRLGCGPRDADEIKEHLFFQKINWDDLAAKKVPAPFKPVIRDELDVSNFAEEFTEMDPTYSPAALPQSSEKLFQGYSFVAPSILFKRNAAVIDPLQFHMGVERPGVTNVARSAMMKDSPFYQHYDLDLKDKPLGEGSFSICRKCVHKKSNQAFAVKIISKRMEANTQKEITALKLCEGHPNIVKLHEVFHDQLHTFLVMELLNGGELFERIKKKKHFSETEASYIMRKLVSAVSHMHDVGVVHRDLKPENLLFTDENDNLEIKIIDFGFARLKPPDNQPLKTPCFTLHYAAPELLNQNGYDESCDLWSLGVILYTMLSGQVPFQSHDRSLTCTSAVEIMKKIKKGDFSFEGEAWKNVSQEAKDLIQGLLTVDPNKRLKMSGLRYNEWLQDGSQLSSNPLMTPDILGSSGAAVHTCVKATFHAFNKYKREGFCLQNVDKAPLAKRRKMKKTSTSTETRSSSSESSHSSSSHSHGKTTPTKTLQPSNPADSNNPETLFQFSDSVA
T34 sequence (O43318 with tags, fused parts or gaps limits assumed): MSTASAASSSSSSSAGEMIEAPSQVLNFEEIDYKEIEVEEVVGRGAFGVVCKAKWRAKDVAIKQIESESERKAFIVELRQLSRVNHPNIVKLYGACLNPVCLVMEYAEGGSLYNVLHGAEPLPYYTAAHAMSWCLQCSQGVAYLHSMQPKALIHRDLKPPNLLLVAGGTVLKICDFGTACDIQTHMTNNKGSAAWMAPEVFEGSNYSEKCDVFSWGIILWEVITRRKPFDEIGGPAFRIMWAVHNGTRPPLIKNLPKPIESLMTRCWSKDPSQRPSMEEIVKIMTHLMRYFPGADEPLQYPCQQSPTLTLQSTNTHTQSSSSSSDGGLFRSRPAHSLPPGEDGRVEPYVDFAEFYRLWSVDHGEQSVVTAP
T1 sequence (O14965 whole entry): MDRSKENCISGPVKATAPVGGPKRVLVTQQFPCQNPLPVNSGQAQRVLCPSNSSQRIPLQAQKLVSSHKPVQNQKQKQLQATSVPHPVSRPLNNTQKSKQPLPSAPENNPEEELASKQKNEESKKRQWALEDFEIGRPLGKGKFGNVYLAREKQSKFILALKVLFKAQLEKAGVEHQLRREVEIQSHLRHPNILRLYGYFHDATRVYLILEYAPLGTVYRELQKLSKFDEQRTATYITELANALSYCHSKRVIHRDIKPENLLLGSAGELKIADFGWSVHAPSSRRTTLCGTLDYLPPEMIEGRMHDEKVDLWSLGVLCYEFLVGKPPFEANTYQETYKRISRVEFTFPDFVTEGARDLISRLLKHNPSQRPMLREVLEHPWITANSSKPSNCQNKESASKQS
T7 sequence (P49760 whole entry): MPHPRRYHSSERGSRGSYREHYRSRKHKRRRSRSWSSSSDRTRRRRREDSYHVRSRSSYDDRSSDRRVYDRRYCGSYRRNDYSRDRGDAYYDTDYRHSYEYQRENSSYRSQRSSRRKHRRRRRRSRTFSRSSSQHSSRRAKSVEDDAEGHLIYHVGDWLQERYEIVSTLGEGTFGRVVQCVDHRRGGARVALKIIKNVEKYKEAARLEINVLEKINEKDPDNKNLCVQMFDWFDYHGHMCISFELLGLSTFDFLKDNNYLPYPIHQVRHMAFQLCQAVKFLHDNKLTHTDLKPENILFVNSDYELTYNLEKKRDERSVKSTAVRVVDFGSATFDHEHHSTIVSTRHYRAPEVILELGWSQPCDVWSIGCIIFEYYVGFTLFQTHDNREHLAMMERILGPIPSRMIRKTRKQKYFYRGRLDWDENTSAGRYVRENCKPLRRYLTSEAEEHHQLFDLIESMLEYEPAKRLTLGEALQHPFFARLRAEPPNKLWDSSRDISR

`COCCN1C[C@@H](NC(=O)Nc2c(C)c(-c3cnc(C)nc3)nn2-c2ccccc2)[C@H](c2cccc(F)c2)C1` [Compound 1, 1-((3S,4R)-4-(3-fluorophenyl)-1-(2-methoxyethyl)pyrrolidin-3-yl)-3-(4-methyl-3-(2-methylpyrimidin-5-yl)-1-phenyl-1H-pyrazol-5-yl)urea] was tested, and the “Avg POC” value [1] was 115 POC, the “Avg POC” value [2] was 110.5 POC and the “Avg POC” value [3] was 110.5 POC. For the same compound, the “Avg POC” value [4] was 82.5 POC, the “Avg POC” value [5] was 104.5 POC and the “Avg POC” value [6] was 115 POC. For the same compound, the “Avg POC” value [7] was 102 POC, the “Avg POC” value [8] was 95.5 POC and the “Avg POC” value [9] was 94.5 POC. For the same compound, the “Avg POC” value [10] was 109.5 POC, the “Avg POC” value [11] was 110 POC and the “Avg POC” value [12] was 105.5 POC. For the same compound, the “Avg POC” value [13] was 100 POC, the “Avg POC” value [14] was 112 POC and the “Avg POC” value [15] was 90 POC. For the same compound, the “Avg POC” value [16] was 104 POC, the “Avg POC” value [17] was 126 POC and the “Avg POC” value [18] was 99 POC. The “Avg POC” value [19] was 107.5 POC, the “Avg POC” value [20] was 125 POC and the “Avg POC” value [21] was 129 POC. For the same compound, the “Avg POC” value [22] was 147.5 POC, the “Avg POC” value [23] was 95 POC and the “Avg POC” value [24] was 97 POC. The “Avg POC” value [25] was 91 POC, the “Avg POC” value [26] was 97.5 POC and the “Avg POC” value [27] was 94.5 POC. For the same compound, the “Avg POC” value [28] was 95.5 POC, the “Avg POC” value [29] was 90.5 POC and the “Avg POC” value [30] was 112.5 POC. For the same compound, the “Avg POC” value [31] was 112.5 POC, the “Avg POC” value [32] was 108 POC and the “Avg POC” value [33] was 96.5 POC. For the same compound, the “Avg POC” value [34] was 101.5 POC, the “Avg POC” value [35] was 96 POC and the “Avg POC” value [36] was 114.5 POC. The “Avg POC” value [37] was 97 POC, the “Avg POC” value [38] was 93.5 POC and the “Avg POC” value [39] was 107.5 POC. The “Avg POC” value [40] was 96 POC and the “Avg POC” value [41] was 115.5 POC.
